Experimental data as given in ChEMBL document CHEMBL4002566, “S-substituted 3,5-dinitrophenyl 1,3,4-oxadiazole-2-thiols and tetrazole-5-thiols as highly efficient antitubercular agents” (Eur J Med Chem, 2017).
Converted amounts (≈) assume the structure as drawn.

Key:
Type in all cases: functional
[1] = tested on: Mycobacterium tuberculosis; assay: Antimycobacterial activity against multidrug-resistant Mycobacterium tuberculosis 9449/2007 after 14 days by micromethod; conditions: 9449/2007, 336 h
[2] = tested on: Mycobacterium tuberculosis; assay: Antimycobacterial activity against multidrug-resistant Mycobacterium tuberculosis Praha 131 after 14 days by micromethod; conditions: Praha 131, 336 h
[3] = tested on: Mycobacterium tuberculosis; assay: Antimycobacterial activity against multidrug-resistant Mycobacterium tuberculosis 234/2005 after 14 days by micromethod; conditions: 234/2005, 336 h
[4] = tested on: Mycobacterium tuberculosis; assay: Antimycobacterial activity against multidrug-resistant Mycobacterium tuberculosis Praha 4 after 14 days by micromethod; conditions: Praha 4, 336 h
[5] = tested on: Mycobacterium tuberculosis; assay: Antimycobacterial activity against multidrug-resistant Mycobacterium tuberculosis Praha 1 after 14 days by micromethod; conditions: Praha 1, 336 h
[6] = tested on: Mycobacterium tuberculosis; assay: Antimycobacterial activity against multidrug-resistant Mycobacterium tuberculosis Praha 1 after 21 days by micromethod; conditions: Praha 1, 504 h
[7] = tested on: Mycobacterium tuberculosis; assay: Antimycobacterial activity against multidrug-resistant Mycobacterium tuberculosis 9449/2007 after 21 days by micromethod; conditions: 9449/2007, 504 h
[8] = tested on: Mycobacterium tuberculosis; assay: Antimycobacterial activity against multidrug-resistant Mycobacterium tuberculosis Praha 4 after 21 days by micromethod; conditions: Praha 4, 504 h
[9] = tested on: Mycobacterium tuberculosis; assay: Antimycobacterial activity against multidrug-resistant Mycobacterium tuberculosis 8666/2010 after 21 days by micromethod; conditions: 8666/2010, 504 h
[10] = tested on: Mycobacterium tuberculosis; assay: Antimycobacterial activity against multidrug-resistant Mycobacterium tuberculosis 234/2005 after 21 days by micromethod; conditions: 234/2005, 504 h
[11] = tested on: Mycobacterium tuberculosis; assay: Antimycobacterial activity against multidrug-resistant Mycobacterium tuberculosis Praha 131 after 21 days by micromethod; conditions: Praha 131, 504 h
[12] = tested on: Mycobacterium tuberculosis; assay: Antimycobacterial activity against multidrug-resistant Mycobacterium tuberculosis 7357/1998 after 21 days by micromethod; conditions: 7357/1998, 504 h
[13] = tested on: Mycobacterium tuberculosis; assay: Antimycobacterial activity against multidrug-resistant Mycobacterium tuberculosis 7357/1998 after 14 days by micromethod; conditions: 7357/1998, 336 h
[14] = tested on: Mycobacterium tuberculosis; assay: Antimycobacterial activity against multidrug-resistant Mycobacterium tuberculosis 8666/2010 after 14 days by micromethod; conditions: 8666/2010, 336 h

O=[N+]([O-])c1cc(-c2nnc(SCc3cccc(Cl)c3)o2)cc([N+](=O)[O-])c1
MIC [1]: 0.03 µM (≈ 0.0118 µg/mL)
MIC [2]: 0.03 µM (≈ 0.0118 µg/mL)
MIC [3]: 0.03 µM (≈ 0.0118 µg/mL)
MIC [4]: 0.03 µM (≈ 0.0118 µg/mL)
MIC [5]: 0.03 µM (≈ 0.0118 µg/mL)
MIC [6]: 0.06 µM (≈ 0.0236 µg/mL)
MIC [7]: 0.06 µM (≈ 0.0236 µg/mL)
MIC [8]: 0.06 µM (≈ 0.0236 µg/mL)
MIC [9]: 0.06 µM (≈ 0.0236 µg/mL)
MIC [10]: 0.06 µM (≈ 0.0236 µg/mL)
MIC [11]: 0.06 µM (≈ 0.0236 µg/mL)
MIC [12]: 0.06 µM (≈ 0.0236 µg/mL)
MIC [13]: 0.03 µM (≈ 0.0118 µg/mL)
MIC [14]: 0.03 µM (≈ 0.0118 µg/mL)

CC1COc2c(N3CCN(C)CC3)c(F)cc3c(=O)c(C(=O)O)cn1c23 (stereo unspecified) [OFLOXACIN]
MIC [1]: 2 µM (≈ 0.723 µg/mL)
MIC [2]: 16 µM (≈ 5.78 µg/mL)
MIC [3]: 0.5 µM (≈ 0.181 µg/mL)
MIC [4]: > 16 µM
MIC [5]: 1 µM (≈ 0.361 µg/mL)
MIC [13]: 8 µM (≈ 2.89 µg/mL)
MIC [14]: 8 µM (≈ 2.89 µg/mL)

CO[C@H]1/C=C/O[C@@]2(C)Oc3c(C)c(O)c4c(O)c(c(/C=N/N5CCN(C)CC5)c(O)c4c3C2=O)NC(=O)/C(C)=C\C=C\[C@H](C)[C@H](O)[C@@H](C)[C@@H](O)[C@@H](C)[C@H](OC(C)=O)[C@@H]1C [RIFAMPIN]
MIC [1]: > 8 µM
MIC [2]: > 8 µM
MIC [3]: > 8 µM
MIC [4]: > 8 µM
MIC [5]: > 8 µM
MIC [13]: > 8 µM
MIC [14]: > 8 µM

NCC[C@H](O)C(=O)N[C@@H]1C[C@H](N)[C@@H](O[C@H]2O[C@H](CN)[C@@H](O)[C@H](O)[C@H]2O)[C@H](O)[C@H]1O[C@H]1O[C@H](CO)[C@@H](O)[C@H](N)[C@H]1O [AMIKACIN]
MIC [1]: 0.5 µM (≈ 0.293 µg/mL)
MIC [2]: > 32 µM
MIC [3]: 0.5 µM (≈ 0.293 µg/mL)
MIC [4]: 1 µM (≈ 0.586 µg/mL)
MIC [5]: 0.5 µM (≈ 0.293 µg/mL)
MIC [13]: 1 µM (≈ 0.586 µg/mL)
MIC [14]: 2 µM (≈ 1.17 µg/mL)

O=[N+]([O-])c1cc(-c2nnc(SCc3ccc(Cl)c(Cl)c3)o2)cc([N+](=O)[O-])c1
MIC [1]: 0.03 µM (≈ 0.0128 µg/mL)
MIC [2]: 0.03 µM (≈ 0.0128 µg/mL)
MIC [3]: 0.03 µM (≈ 0.0128 µg/mL)
MIC [4]: 0.03 µM (≈ 0.0128 µg/mL)
MIC [5]: 0.03 µM (≈ 0.0128 µg/mL)
MIC [6]: 0.03 µM (≈ 0.0128 µg/mL)
MIC [7]: 0.03 µM (≈ 0.0128 µg/mL)
MIC [8]: 0.03 µM (≈ 0.0128 µg/mL)
MIC [9]: 0.03 µM (≈ 0.0128 µg/mL)
MIC [10]: 0.03 µM (≈ 0.0128 µg/mL)
MIC [11]: 0.03 µM (≈ 0.0128 µg/mL)
MIC [12]: 0.03 µM (≈ 0.0128 µg/mL)
MIC [13]: 0.03 µM (≈ 0.0128 µg/mL)
MIC [14]: 0.03 µM (≈ 0.0128 µg/mL)

CC(C)/N=c1\cc2n(-c3ccc(Cl)cc3)c3ccccc3nc-2cc1Nc1ccc(Cl)cc1 [CLOFAZIMINE]
MIC [1]: 0.125 µM (≈ 0.0592 µg/mL)
MIC [2]: 0.25 µM (≈ 0.118 µg/mL)
MIC [3]: 0.125 µM (≈ 0.0592 µg/mL)
MIC [4]: 0.5 µM (≈ 0.237 µg/mL)
MIC [5]: 0.5 µM (≈ 0.237 µg/mL)
MIC [13]: 0.125 µM (≈ 0.0592 µg/mL)
MIC [14]: 2 µM (≈ 0.947 µg/mL)

O=[N+]([O-])c1cc(-n2nnnc2SCc2ccc(Cl)c(Cl)c2)cc([N+](=O)[O-])c1
MIC [1]: 0.25 µM (≈ 0.107 µg/mL)
MIC [2]: 0.25 µM (≈ 0.107 µg/mL)
MIC [3]: 0.25 µM (≈ 0.107 µg/mL)
MIC [4]: 0.25 µM (≈ 0.107 µg/mL)
MIC [5]: 0.25 µM (≈ 0.107 µg/mL)
MIC [6]: 0.5 µM (≈ 0.214 µg/mL)
MIC [7]: 0.25 µM (≈ 0.107 µg/mL)
MIC [8]: 0.25 µM (≈ 0.107 µg/mL)
MIC [9]: 0.25 µM (≈ 0.107 µg/mL)
MIC [10]: 0.25 µM (≈ 0.107 µg/mL)
MIC [11]: 0.5 µM (≈ 0.214 µg/mL)
MIC [12]: 0.5 µM (≈ 0.214 µg/mL)
MIC [13]: 0.25 µM (≈ 0.107 µg/mL)
MIC [14]: 0.25 µM (≈ 0.107 µg/mL)

CC[C@@H](CO)NCCN[C@@H](CC)CO [ETHAMBUTOL]
MIC [1]: 8 µM (≈ 1.63 µg/mL)
MIC [2]: 32 µM (≈ 6.54 µg/mL)
MIC [3]: 16 µM (≈ 3.27 µg/mL)
MIC [4]: 16 µM (≈ 3.27 µg/mL)
MIC [5]: 32 µM (≈ 6.54 µg/mL)
MIC [13]: 16 µM (≈ 3.27 µg/mL)
MIC [14]: 16 µM (≈ 3.27 µg/mL)

O=[N+]([O-])c1cc(-c2nnc(SCc3ccccc3Cl)o2)cc([N+](=O)[O-])c1
MIC [1]: 0.06 µM (≈ 0.0236 µg/mL)
MIC [2]: 0.06 µM (≈ 0.0236 µg/mL)
MIC [3]: 0.06 µM (≈ 0.0236 µg/mL)
MIC [4]: 0.03 µM (≈ 0.0118 µg/mL)
MIC [5]: 0.06 µM (≈ 0.0236 µg/mL)
MIC [6]: 0.125 µM (≈ 0.0491 µg/mL)
MIC [7]: 0.125 µM (≈ 0.0491 µg/mL)
MIC [8]: 0.06 µM (≈ 0.0236 µg/mL)
MIC [9]: 0.125 µM (≈ 0.0491 µg/mL)
MIC [10]: 0.125 µM (≈ 0.0491 µg/mL)
MIC [11]: 0.125 µM (≈ 0.0491 µg/mL)
MIC [12]: 0.125 µM (≈ 0.0491 µg/mL)
MIC [13]: 0.06 µM (≈ 0.0236 µg/mL)
MIC [14]: 0.06 µM (≈ 0.0236 µg/mL)
